Counter-ions that a name gives are not always drawn.
Test system: esterase from porcine liver
Assay: in vitro enzymatic degradation by esterase
Assay type: in vitro ADME
Settings: 200 mg monomer, 50 units esterase, 24 hours, 37° C., 1H NMR
Procedure: The enzymatic degradation of these new monomers were compared to those of the oligomerized fatty acids. The monomers RAM, HSAM, HSAS, FAD, and FAT (200 mg) were mixed in a solution containing esterase (2 ml, containing 50 units of esterase from porcine liver, Sigma Chemical Company, St. Louis, Missouri) and were incubated for 24 hours at 37° C. The monomers or their degradation products were extracted with chloroform and analyzed by ^1 H NMR. […] The RAM, and HSAS monomers contained about 10% ricinoleic acid or 12-hydroxy stearic acid, respectively.

Row | ricinoleic acid or 12-hydroxy stearic acid formed | Compound
1 | about 10% | CCCCCCC(CCCCCCCCCCC(=O)O)OC(=O)CCC(=O)O (centres unmarked) [HSAS, 12-hydroxy stearic acid succinate]
2 | about 10% | CCCCCC[C@H](C/C=C\CCCCCCCC(=O)O)OC(=O)/C=C\C(=O)O [RAM, ricinoleic acid maleate]

From patent publication US5473103A, “Biopolymers derived from hydrolyzable diacid fats” (Yissum Research Development Co. of the Hebrew University of …, priority 1993, dated 1995)
